In ChEMBL document CHEMBL1140183, “Bornyl- and isobornyl-Delta8-tetrahydrocannabinols: a novel class of cannabinergic ligands” (J Med Chem, 2008):

Key:
Cannabinoid receptor 1 = Cannabinoid receptor 1 (Rattus norvegicus, UniProt P20272); test: Displacement of [3H]CP-55940 from CB1 receptor in rat brain synaptosome membrane; type: cell membranes
Cannabinoid receptor 2 = Cannabinoid receptor 2 (Mus musculus, UniProt P47936); test: Displacement of [3H]CP-55940 from CB2 receptor in mouse spleen membrane; type: cell membranes
Cannabinoid receptor 2, sequence (P47936 whole entry): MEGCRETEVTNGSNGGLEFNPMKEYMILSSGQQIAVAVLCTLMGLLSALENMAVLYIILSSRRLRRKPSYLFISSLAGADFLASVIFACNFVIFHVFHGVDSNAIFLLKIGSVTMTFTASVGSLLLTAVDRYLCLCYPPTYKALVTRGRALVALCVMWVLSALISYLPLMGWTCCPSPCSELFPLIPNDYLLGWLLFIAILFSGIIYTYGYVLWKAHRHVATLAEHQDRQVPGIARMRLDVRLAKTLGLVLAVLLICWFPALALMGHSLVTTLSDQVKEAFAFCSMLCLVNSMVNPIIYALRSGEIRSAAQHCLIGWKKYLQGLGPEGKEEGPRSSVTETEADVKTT

Cannabinoid receptor 1, sequence (P20272 whole entry): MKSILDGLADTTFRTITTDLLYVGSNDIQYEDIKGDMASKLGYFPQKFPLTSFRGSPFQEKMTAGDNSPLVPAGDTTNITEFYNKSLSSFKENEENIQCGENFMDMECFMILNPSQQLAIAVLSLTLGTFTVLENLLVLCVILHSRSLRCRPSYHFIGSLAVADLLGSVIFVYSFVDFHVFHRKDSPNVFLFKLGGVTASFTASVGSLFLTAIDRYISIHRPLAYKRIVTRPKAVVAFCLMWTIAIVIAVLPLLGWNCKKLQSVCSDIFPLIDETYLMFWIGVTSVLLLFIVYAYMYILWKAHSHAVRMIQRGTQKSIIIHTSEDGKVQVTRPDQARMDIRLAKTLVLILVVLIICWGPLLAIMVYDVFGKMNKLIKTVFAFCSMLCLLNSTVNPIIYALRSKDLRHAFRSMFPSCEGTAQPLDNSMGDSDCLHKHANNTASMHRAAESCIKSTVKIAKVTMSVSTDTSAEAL

## CC1=CC[C@@H]2[C@@H](C1)c1c(ccc(C[C@@H]3C[C@@H]4CC[C@]3(C)C4(C)C)c1O)OC2(C)C
Cannabinoid receptor 1
  Ki: 49 nM
Cannabinoid receptor 2
  Ki: 49.5 nM

## CC1=CC[C@@H]2[C@@H](C1)c1c(O)cc([C@H]3C[C@@H]4CC[C@]3(C)C4(C)C)cc1OC2(C)C
Cannabinoid receptor 1
  Ki: 8.9 nM
Cannabinoid receptor 2
  Ki: 7.4 nM

## CC1=CC[C@@H]2[C@@H](C1)c1c(O)cc([C@@H]3C[C@@H]4CC[C@]3(C)C4(C)C)cc1OC2(C)C
Cannabinoid receptor 1
  Ki: 60.2 nM
Cannabinoid receptor 2
  Ki: 6.1 nM

## CC1=CC[C@@H]2[C@@H](C1)c1c(ccc(C[C@H]3C[C@@H]4CC[C@]3(C)C4(C)C)c1O)OC2(C)C
Cannabinoid receptor 1
  Ki: 32.7 nM
Cannabinoid receptor 2
  Ki: 30.5 nM
